Source: patent US10414763B2 (CANCER RESEARCH TECHNOLOGY LIMITED, priority 2014, dated 2019)

What follows are molecules tested against T1, full-length human PKCι (Homo sapiens, UniProt P41743) (assay: PKCι IC50 IMAP fluorescence polarisation assay, full-length enzyme, 150 μM ATP). Conditions: read-out: IC50 in IMAP assay against full length PKCi at 150 μM ATP.
T1 construct: Recombinant, full-length human PKCι expressed in Sf21 insect cells is also commercially available; purchased EMD Millipore; host or cells: Sf21 insect cells (baculovirus)
T1 sequence (P41743 1-596): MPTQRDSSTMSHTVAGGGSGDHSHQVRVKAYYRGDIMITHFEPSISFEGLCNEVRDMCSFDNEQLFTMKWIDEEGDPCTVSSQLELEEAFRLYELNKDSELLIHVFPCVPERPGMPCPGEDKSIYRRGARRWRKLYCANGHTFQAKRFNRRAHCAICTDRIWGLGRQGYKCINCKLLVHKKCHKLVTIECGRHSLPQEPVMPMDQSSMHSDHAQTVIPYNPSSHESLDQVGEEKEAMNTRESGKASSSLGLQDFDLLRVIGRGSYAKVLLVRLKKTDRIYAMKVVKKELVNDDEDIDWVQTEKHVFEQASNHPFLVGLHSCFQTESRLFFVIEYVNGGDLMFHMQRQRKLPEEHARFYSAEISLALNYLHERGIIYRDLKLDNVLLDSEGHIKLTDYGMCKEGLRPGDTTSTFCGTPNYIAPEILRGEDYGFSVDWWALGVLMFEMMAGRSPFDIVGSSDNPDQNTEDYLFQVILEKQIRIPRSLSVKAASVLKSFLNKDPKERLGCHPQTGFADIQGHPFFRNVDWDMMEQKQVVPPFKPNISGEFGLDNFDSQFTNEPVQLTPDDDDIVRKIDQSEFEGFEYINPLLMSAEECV
Format: biochemical
Procedure, shortened: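 IMAP fluorescence polarisation kinase assay: 15 pM baculovirus-expressed human PKCiota with 100 nM FAM-pseudosubstrate peptide and 150 μM ATP, 1 h at 25 °C. IMAP detection reagent then 2 h at 25 °C before FP measurement. Inhibition referenced to no-compound and no-enzyme controls for IC50 fitting.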

Row | Compound | IC50 [nM]
1 | Fc1cc(F)c(Nc2cc(-c3nc(NC4CCCNCC4)c4c(C5CCC5)cncc4n3)ccn2)nc1F (stereo not shown) [Example 159, Azepan-4-yl-{5-cyclobutyl-2-[2-(3,5,6-trifluoro-pyridin-2-ylamino)-pyridin-4-yl]-pyrido[3,4-d]pyrimidin-4-yl}-amine] | < 100
2 | Fc1ccc(F)c(Nc2cc(-c3nc(NC4CCCNCC4)c4c(C5CCC5)cncc4n3)ccn2)n1 (stereo not shown) [Example 160, Azepan-4-yl-{5-cyclobutyl-2-[2-(3,6-difluoro-pyridin-2-ylamino)-pyridin-4-yl]-pyrido[3,4-d]pyrimidin-4-yl}-amine] | < 100
3 | CC1(C)CNCC[C@@H]1Nc1nc(-c2ccnc3[nH]c4ccccc4c23)nc2cncc(C3CCC3)c12 [Example 200] | 100 to 1000
4 | Fc1cccc(Nc2cc(-c3nc(N4CCOC5CNCC54)c4c(C5CC5)cncc4n3)ccn2)n1 (stereo not shown) [Example 201, {4-[5-Cyclopropyl-4-(hexahydro-pyrrolo[3,4-b][1,4]oxazin-4-yl)-pyrido[3,4-d]pyrimidin-2-yl]-pyridin-2-yl}-(6-fluoro-pyridin-2-yl)-amine] | < 100
5 | Fc1cc(F)c(Nc2cc(-c3nc(N4CCOC5CNCC54)c4c(C5CC5)cncc4n3)ccn2)nc1F (stereo not shown) [Example 202, {4-[5-Cyclopropyl-4-(hexahydro-pyrrolo[3,4-b][1,4]oxazin-4-yl)-pyrido[3,4-d]pyrimidin-2-yl]-pyridin-2-yl}-(3,5,6-trifluoro-pyridin-2-yl)-amine] | < 100
6 | Fc1ccc(F)c(Nc2cc(-c3nc(N4CCOC5CNCC54)c4c(C5CC5)cncc4n3)ccn2)n1 (stereo not shown) [Example 203, {4-[5-Cyclopropyl-4-(hexahydro-pyrrolo[3,4-b][1,4]oxazin-4-yl)-pyrido[3,4-d]pyrimidin-2-yl]-pyridin-2-yl}-(3,6-difluoro-pyridin-2-yl)-amine] | 100 to 1000
7 | CC(C)c1cc(C(C)C)c(S(=O)(=O)Oc2nc(-c3ccnc4[nH]c5ccccc5c34)nc3cncc(C4CCC4)c23)c(C(C)C)c1 [Example 204, 2,4,6-Triisopropyl-benzenesulfonic acid 5-cyclobutyl-2-(9H-pyrido[2,3-b]indol-4-yl)-pyrido[3,4-d]pyrimidin-4-yl ester] | < 100
8 | c1cc(-c2nc(N3CCNCC3)c3c(C4CC4)cncc3n2)cc(Nc2nc3n(n2)CCCC3)n1 [Example 205, [4-(5-Cyclopropyl-4-piperazin-1-yl-pyrido[3,4-d]pyrimidin-2-yl)-pyridin-2-yl]-(5,6,7,8-tetrahydro-[1,2,4]triazolo[1,5-a]pyridin-2-yl)-amine] | < 100
9 | c1ccc2c(c1)[nH]c1nccc(-c3nc(N4CCOC5CNCC54)c4c(C5CCC5)cncc4n3)c12 (stereo not shown) [Example 206, 4-[5-Cyclobutyl-4-(hexahydro-pyrrolo[3,4-b][1,4]oxazin-4-yl)-pyrido[3,4-d]pyrimidin-2-yl]-9H-pyrido[2,3-b]indole] | < 100
10 | Fc1cc(F)c(Nc2cc(-c3nc(NC45CCNCC4C5)c4c(C5CCC5)cncc4n3)ccn2)nc1F (stereo not shown) [Example 208, (3-Aza-bicyclo[4.1.0]hept-6-yl)-{5-cyclobutyl-2-[2-(3,5,6-trifluoro-pyridin-2-ylamino)-pyridin-4-yl]-pyrido[3,4-d]pyrimidin-4-yl}-amine] | < 100
11 | Fc1ccc(F)c(Nc2cc(-c3nc(NC45CCNCC4C5)c4c(C5CCC5)cncc4n3)ccn2)n1 (stereo not shown) [Example 209, (3-Aza-bicyclo[4.1.0]hept-6-yl)-{5-cyclobutyl-2-[2-(3,6-difluoro-pyridin-2-ylamino)-pyridin-4-yl]-pyrido[3,4-d]pyrimidin-4-yl}-amine] | < 100
12 | CC1(C)CNCC[C@@H]1Nc1nc(-c2ccnc(Nc3ncccc3F)c2)nc2cncc(C3CCC3)c12 [Example 210, {5-Cyclobutyl-2-[2-(3-fluoro-pyridin-2-ylamino)-pyridin-4-yl]-pyrido[3,4-d]pyrimidin-4-yl}-((S)-3,3-dimethyl-piperidin-4-yl)-amine] | < 100
13 | CC1(C)CNCC[C@@H]1Nc1nc(-c2ccnc(Nc3ncc(F)cc3F)c2)nc2cncc(C3CCC3)c12 [Example 211, {5-Cyclobutyl-2-[2-(3,5-difluoro-pyridin-2-ylamino)-pyridin-4-yl]-pyrido[3,4-d]pyrimidin-4-yl}-((S)-3,3-dimethyl-piperidin-4-yl)-amine] | < 100
14 | Cc1cc2c(-c3nc(N(C)[C@H]4CCNCC4(C)C)c4c(C5CC5)cncc4n3)ccnc2[nH]1 [Example 212, [5-Cyclopropyl-2-(2-methyl-1H-pyrrolo[2,3-b]pyridin-4-yl)-pyrido[3,4-d]pyrimidin-4-yl]-((S)-3,3-dimethyl-piperidin-4-yl)-methyl-amine] | < 100
15 | CN(c1nc(-c2ccnc3[nH]c(C(C)(C)C)cc23)nc2cncc(C3CCC3)c12)C1CCNCC1 [Example 213, [2-(2-tert-Butyl-1H-pyrrolo[2,3-b]pyridin-4-yl)-5-cyclobutyl-pyrido[3,4-d]pyrimidin-4-yl]-methyl-piperidin-4-yl-amine] | < 100
16 | NC1CCN(c2nc(-c3ccnc4[nH]c5ccccc5c34)nc3cncc(C4CCC4)c23)C1 (stereo not shown) [Example 214, 1-[5-Cyclobutyl-2-(9H-pyrido[2,3-b]indol-4-yl)-pyrido[3,4-d]pyrimidin-4-yl]-pyrrolidin-3-ylamine] | < 100
17 | FC(F)(F)c1cncc2nc(-c3ccnc4[nH]c5ccccc5c34)nc(N3CCNCC3)c12 [Example 215, 4-(4-Piperazin-1-yl-5-trifluoromethyl-pyrido[3,4-d]pyrimidin-2-yl)-9H-pyrido[2,3-b]indole] | 100 to 1000
18 | FC(F)(F)c1cncc2nc(-c3ccnc4[nH]c5ccccc5c34)nc(N3CC[C@@H]4CNC[C@@H]43)c12 [Example 216, 4-((3R,6R)-4-Hexahydro-pyrrolo[3,4-b]pyrrol-1-yl-5-trifluoromethyl-pyrido[3,4-d]pyrimidin-2-yl)-9H-pyrido[2,3-b]indole] | 100 to 1000
19 | CC1(C)CNCC[C@@H]1Nc1nc(-c2ccnc3[nH]c4ccccc4c23)nc2cncc(C(F)(F)F)c12 [Example 217, ((S)-3,3-Dimethyl-piperidin-4-yl)-[2-(9H-pyrido[2,3-b]indol-4-yl)-5-trifluoromethyl-pyrido[3,4-d]pyrimidin-4-yl]-amine] | < 100
20 | N[C@H]1C[C@@H](Nc2nc(-c3ccnc4[nH]c5ccccc5c34)nc3cncc(C(F)(F)F)c23)C1 [Example 218, cis-N-[2-(9H-Pyrido[2,3-b]indol-4-yl)-5-trifluoromethyl-pyrido[3,4-d]pyrimidin-4-yl]-cyclobutane-1,3-diamine] | 100 to 1000
21 | OC1CNCCC(Nc2nc(-c3ccnc4[nH]c5ccccc5c34)nc3cncc(C(F)(F)F)c23)C1 (stereo not shown) [Example 219, 5-[2-(9H-Pyrido[2,3-b]indol-4-yl)-5-trifluoromethyl-pyrido[3,4-d]pyrimidin-4-ylamino]-azepan-3-ol] | < 100
22 | CN(c1nc(-c2ccnc3[nH]c4ccccc4c23)nc2cncc(C(F)(F)F)c12)C1CC(N)C(O)C1 (stereo not shown) [Example 220, 2-Amino-4-{methyl-[2-(9H-pyrido[2,3-b]indol-4-yl)-5-trifluoromethyl-pyrido[3,4-d]pyrimidin-4-yl]-amino}-cyclopentanol] | < 100
23 | NC1CCN(c2nc(-c3ccnc4[nH]c5ccccc5c34)nc3cncc(C(F)(F)F)c23)C1 (stereo not shown) [Example 221, 1-[2-(9H-Pyrido[2,3-b]indol-4-yl)-5-trifluoromethyl-pyrido[3,4-d]pyrimidin-4-yl]-pyrrolidin-3-ylamine] | 100 to 1000
24 | Fc1ccc(Cl)c(-c2cc3c(-c4nc(N5CCNCC5)c5c(C6CC6)cncc5n4)ccnc3[nH]2)c1 [Example 222, 2-[2-(2-Chloro-5-fluoro-phenyl)-1H-pyrrolo[2,3-b]pyridin-4-yl]-5-cyclopropyl-4-piperazin-1-yl-pyrido[3,4-d]pyrimidine] | < 100
25 | CC1(C)CNCC[C@@H]1Nc1nc(-c2ccnc3[nH]c(C(F)(F)F)cc23)nc2cncc(C3CC3)c12 [Example 227, [5-Cyclopropyl-2-(2-trifluoromethyl-1H-pyrrolo[2,3-b]pyridin-4-yl)-pyrido[3,4-d]pyrimidin-4-yl]-((S)-3,3-dimethyl-piperidin-4-yl)-amine] | < 100
26 | CC1(C)CNCC[C@@H]1Nc1nc(-c2ccnc3[nH]c(C(F)(F)F)cc23)nc2cncc(C3CCC3)c12 [Example 228, [5-Cyclobutyl-2-(2-trifluoromethyl-1H-pyrrolo[2,3-b]pyridin-4-yl)-pyrido[3,4-d]pyrimidin-4-yl]-((S)-3,3-dimethyl-piperidin-4-yl)-amine] | < 100
27 | CC1(C)CNCC[C@@H]1Nc1nc(-c2ccnc3[nH]c(-c4cc(F)ccc4Cl)cc23)nc2cncc(C3CC3)c12 [Example 229, {2-[2-(2-Chloro-5-fluoro-phenyl)-1H-pyrrolo[2,3-b]pyridin-4-yl]-5-cyclopropyl-pyrido[3,4-d]pyrimidin-4-yl}-((S)-3,3-dimethyl-piperidin-4-yl)-amine] | < 100
28 | FC1CNCCC(Nc2nc(-c3ccnc4[nH]c5ccccc5c34)nc3cncc(C4CCC4)c23)C1 (stereo not shown) [Example 232, [5-Cyclobutyl-2-(9H-pyrido[2,3-b]indol-4-yl)-pyrido[3,4-d]pyrimidin-4-yl]-(6-fluoro-azepan-4-yl)-amine] | < 100
